Experimental data published in patent publication US4355038A, “α-Substituted ureido-benzylpenicillanic acids” (Chugai Seiyaku Kabushiki Kaisha, priority 1980, dated 1982).
In brackets after ≈: the same amount, converted by molar mass.

Tests used:
[1] = system: Staphylococcus aureus 209P; experiment: MIC, agar plate doubling dilution method; type: cell-based; settings: HI agar, 37° C., 20 hours, read-out: minimum inhibitory concentration (MIC)
Description: (§1) Invitro antibacterial activity was measured by the agar plate doubling dilution method described below. A test culture incubated overnight in a heart infusion broth was diluted by 100 to 1000 fold and one […] of the culture was inoculated on heart infusion agars (HI agar) containing various concentrations of a specific compound and the inoculates were incubated at 37° C. for 20 hours.

[2] = system: Klebsiella pneumoniae 15c; experiment: MIC, agar plate doubling dilution method; type: cell-based; settings: HI agar, 37° C., 20 hours, read-out: minimum inhibitory concentration (MIC)
Description: as §1

[3] = system: Escherichia coli NIHJ; experiment: MIC, agar plate doubling dilution method; type: cell-based; settings: HI agar, 37° C., 20 hours, read-out: minimum inhibitory concentration (MIC)
Description: as §1

[4] = system: Proteus mirabilis 9'; experiment: MIC, agar plate doubling dilution method; type: cell-based; settings: HI agar, 37° C., 20 hours, read-out: minimum inhibitory concentration (MIC)
Description: as §1

[5] = system: Shigella flexneri 2b; experiment: MIC, agar plate doubling dilution method; type: cell-based; settings: HI agar, 37° C., 20 hours, read-out: minimum inhibitory concentration (MIC)
Description: as §1

[6] = system: Pseudomonas aeruginosa J-169; experiment: MIC, agar plate doubling dilution method; type: cell-based; settings: J169, HI agar, 37° C., 20 hours, read-out: minimum inhibitory concentration (MIC)
Description: as §1

[7] = system: Pseudomonas aeruginosa J-169-CM-222; experiment: MIC, agar plate doubling dilution method; type: cell-based; settings: J169CM222, HI agar, 37° C., 20 hours, read-out: minimum inhibitory concentration (MIC)
Description: as §1

[8] = system: Salmonella paratyphi A; experiment: MIC, agar plate doubling dilution method; type: cell-based; settings: Salmonella enterica, 20 h, read-out: minimum inhibitory concentration (MIC)
Description: as §1

[9] = system: Pseudomonas aeruginosa J-272; experiment: MIC, agar plate doubling dilution method; type: cell-based; settings: J272, HI agar, 37° C., 20 hours, read-out: minimum inhibitory concentration (MIC)
Description: as §1

[10] = system: Bacillus subtilis POI-219; experiment: MIC, agar plate doubling dilution method; type: cell-based; settings: POI219, HI agar, 37° C., 20 hours, read-out: minimum inhibitory concentration (MIC)
Description: as §1

[11] = system: Pseudomonas aeruginosa J-272; experiment: ED50 in mice infected intraperitoneally with Pseudomonas aeruginosa; type: in vivo, ddY male mice; settings: subcutaneous 1 h and 3 h after inoculation, 1 × 10^4 cells inoculated i.p. in 5% mucin, survival five days after injection
Description: Five-week-old ddY male mice (five constituting one group) weighing 21 to 25 g on average were administered intraperitoneally with 5% mucin suspensions of test microorganisms that were incubated in brain heart infusion agar plates overnight at 37° C.
One hour and three hours after the inoculation, the mice were injected subcutaneously with various concentrations of the test compounds. The ED50 of each test compound was determined from the number of the mice that were still alive five days after injection of the respective doses.

SMILES | MIC [1] [µg/mL] | MIC [2] [µg/mL] | MIC [3] [µg/mL] | MIC [4] [µg/mL] | MIC [5] [µg/mL] | MIC [6] [µg/mL] | MIC [7] [µg/mL] | MIC [8] [µg/mL] | MIC [9] [µg/mL] | MIC [10] [µg/mL] | ED50 (SC) [11] [mg/head]
CC1(C)S[C@@H]2[C@H](NC(=O)[C@H](NC(=O)N(CCCO)C(=O)c3ccc(O)c(O)c3)c3ccccc3)C(=O)N2[C@H]1C(=O)O [compound (a), 6-[D(-)-α-{3-(3,4-dihydroxybenzoyl)-3-(3-hydroxypropyl)-1-ureido}-α-phenylacetamido]penicillanic acid] | 0.78 (≈ 1.33 µM) | 0.4 (≈ 0.682 µM) | 0.4 (≈ 0.682 µM) | 1.56 (≈ 2.66 µM) | ≤ 0.1 | 0.78 (≈ 1.33 µM) | 3.12 (≈ 5.32 µM) | ≤ 0.1 | 0.4 (≈ 0.682 µM) | 0.2 (≈ 0.341 µM) | 0.61
CC1(C)S[C@@H]2[C@H](NC(=O)[C@H](NC(=O)N(CCO)C(=O)c3ccc(O)c(O)c3)c3ccccc3)C(=O)N2[C@H]1C(=O)O [compound (b), 6-[D(-)-α-{3-(3,4-dihydroxybenzoyl)-3-(2-hydroxyethyl)-1-ureido}-α-phenylacetamide]penicillanic acid] | 1.56 (≈ 2.72 µM) | 3.12 (≈ 5.45 µM) | 6.25 (≈ 10.9 µM) | 3.12 (≈ 5.45 µM) | ≤ 0.1 | 3.12 (≈ 5.45 µM) | 25 (≈ 43.7 µM) | ≤ 0.1 | 0.78 (≈ 1.36 µM) | 0.78 (≈ 1.36 µM) | 1.20
CC1(C)S[C@@H]2[C@H](NC(=O)[C@H](NC(=O)N(CCOCCO)C(=O)c3ccc(O)c(O)c3)c3ccccc3)C(=O)N2[C@H]1C(=O)O [compound (c), 6-[D(-)-α-[3-(3,4-dihydroxybenzoyl)-3-{2-(2-hydroxyethoxy)ethyl}-1-ureidol]-α-phenylacetamido]-penicillanic acid] | 0.4 (≈ 0.649 µM) | 0.4 (≈ 0.649 µM) | 0.4 (≈ 0.649 µM) | 1.56 (≈ 2.53 µM) | ≤ 0.1 | 0.78 (≈ 1.26 µM) | 1.56 (≈ 2.53 µM) | ≤ 0.1 | 0.2 (≈ 0.324 µM) | 0.1 (≈ 0.162 µM) | 1.48
COCCN(C(=O)N[C@@H](C(=O)N[C@@H]1C(=O)N2[C@@H]1SC(C)(C)[C@@H]2C(=O)O)c1ccccc1)C(=O)c1ccc(O)c(O)c1 [compound (d), 6-[D(-)-α-{3-(3,4-dihydroxybenzoyl)-3-(2-methyoxyethyl)-1-ureido}-α-phenylacetamide]-penicillanic acid] | 0.78 (≈ 1.33 µM) | 0.2 (≈ 0.341 µM) | 0.4 (≈ 0.682 µM) | 0.2 (≈ 0.341 µM) | ≤ 0.1 | 3.12 (≈ 5.32 µM) | 3.12 (≈ 5.32 µM) | ≤ 0.1 | 0.78 (≈ 1.33 µM) | 0.4 (≈ 0.682 µM) | 1.52
CC(=O)OCCCN(C(=O)N[C@@H](C(=O)N[C@@H]1C(=O)N2[C@@H]1SC(C)(C)[C@@H]2C(=O)O)c1ccccc1)C(=O)c1ccc(O)c(O)c1 [compound (e), 6-[D(-)-α-{3-(3,4-dihydroxybenzoyl)-3-(3-acetoxypropyl)-1-ureido}-α-phenylacetamido]-penicillanic acid] | 1.56 (≈ 2.48 µM) | 0.4 (≈ 0.636 µM) | 0.78 (≈ 1.24 µM) | 0.78 (≈ 1.24 µM) | ≤ 0.1 | 3.12 (≈ 4.96 µM) | 6.25 (≈ 9.94 µM) | ≤ 0.1 | 0.4 (≈ 0.636 µM) | 0.4 (≈ 0.636 µM) | 1.71
CC1(C)S[C@@H]2[C@H](NC(=O)[C@H](NC(=O)N(CCCO)C(=O)c3ccc(O)c(O)c3)c3ccc(O)cc3)C(=O)N2[C@H]1C(=O)O [compound (f), 6-[D(-)-α-{3-(3,4-dihydroxybenzoyl)-3-(3-hydroxypropyl)-1-ureido}-α-(4-hydroxyphenyl)acetamido]penicillanic acid] | 0.78 (≈ 1.29 µM) | 0.4 (≈ 0.664 µM) | 0.78 (≈ 1.29 µM) | 1.56 (≈ 2.59 µM) | ≤ 0.1 | 0.78 (≈ 1.29 µM) | 3.12 (≈ 5.18 µM) | ≤ 0.1 | 0.2 (≈ 0.332 µM) | 0.4 (≈ 0.664 µM) | 1.18
CN(C(=O)N[C@@H](C(=O)N[C@@H]1C(=O)N2[C@@H]1SC(C)(C)[C@@H]2C(=O)O)c1ccccc1)C(=O)c1ccc(O)c(O)c1 [compound Z, 6-[D(-)-α-{3-(3,4-dihydroxybenzoyl)-3-methyl-1-ureido}-α-phenylacetamido]penicillanic acid, reference compound] | 0.4 (≈ 0.737 µM) | ≤ 0.1 | 0.2 (≈ 0.369 µM) | 0.78 (≈ 1.44 µM) | ≤ 0.1 | 0.2 (≈ 0.369 µM) | 0.4 (≈ 0.737 µM) | ≤ 0.1 | 0.1 (≈ 0.184 µM) | 0.1 (≈ 0.184 µM) | 2.30
CCN1CCN(C(=O)N[C@@H](C(=O)N[C@@H]2C(=O)N3[C@@H]2SC(C)(C)[C@@H]3C(=O)O)c2ccccc2)C(=O)C1=O [piperacillin, 6-[D(-)-α-(4-ethyl-2,3-dioxo-1-piperazinylcarbonylamino)phenylacetamido]penicillanic acid, reference compound] | ≤ 0.2 | 3.12 (≈ 6.03 µM) | 0.2 (≈ 0.386 µM) | 0.78 (≈ 1.51 µM) | 0.78 (≈ 1.51 µM) | 12.5 (≈ 24.2 µM) | 25 (≈ 48.3 µM) | 0.4 (≈ 0.773 µM) | 12.5 (≈ 24.2 µM) | 0.2 (≈ 0.386 µM) | 10.0
